Entries after “also recorded” stand apart in the source; their conditions may differ.
Legend:
ETAR = target: T1, ETAR (Mus musculus, UniProt Q61614); assay: Il-6 expression (RT-PCR) in calvarial osteoblasts treated with ET-1; type: cell-based; conditions: 100 μM zibotentan pre-treatment six hours, then 10 nM ET-1 four hours
T1 construct: Murine calvarial osteoblasts were collected and cultured as previously described; endogenous in cells; host or cells: primary murine calvarial osteoblasts
T1 sequence (Q61614 21-427): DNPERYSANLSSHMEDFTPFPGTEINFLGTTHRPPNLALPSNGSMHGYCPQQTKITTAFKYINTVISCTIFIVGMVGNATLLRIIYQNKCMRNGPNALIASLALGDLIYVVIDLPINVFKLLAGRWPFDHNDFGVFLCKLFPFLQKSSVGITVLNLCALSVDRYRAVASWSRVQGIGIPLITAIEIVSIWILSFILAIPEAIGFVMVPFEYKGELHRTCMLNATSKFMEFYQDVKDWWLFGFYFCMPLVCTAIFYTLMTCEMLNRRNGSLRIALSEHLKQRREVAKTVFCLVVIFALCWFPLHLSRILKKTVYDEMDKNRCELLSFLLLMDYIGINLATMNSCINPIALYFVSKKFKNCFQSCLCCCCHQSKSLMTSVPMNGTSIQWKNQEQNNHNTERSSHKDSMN
Protocol: Calvarial osteoblasts were cultured and pre-treated with or without 100 μM zibotentan for six hours followed by treatment with or without 10 nM ET-1 for four hours. RNA has then harvested and analyzed for the expression of Il-6, a marker of ET-1 action in osteoblasts. Il-6 expression was normalized to the housekeeping gene Rpl32. Data was analyzed using one-way ANOVA followed by Tukey's multiple comparison test.
Murine calvarial osteoblasts were collected and cultured as previously described^7. Two days post-confluence, osteoblasts were treated in triplicate with or without 100 μM zibotentan for six hours. This was followed by treatment with or without 10 nM ET-1 for four hours. RNA was collected using Direct-zol™ RNA MiniPrep Plus kit (Zymo, Irvine, Calif.) according to the manufacturer's directions. RNA was then analyzed by RT-PCR using the iTaq Universal SYBR Green One-Step Kit and a C1000 Thermal Cycler with a CFX96 fluorescent real-time attachment (Bio-Rad, Hercules, Calif.) using the following primers: Il-6: F, ccg gag agg aga ctt cac ag; R, gga aat tgg ggt agg aag ga; and Rpl32: F, cag ggt gcg gag aag gtt caa ggg; R, ctt aga gga cac gtt gtg agc aat. […] Changes in mRNA concentration were determined by subtracting […] (Δ=CtIl-6−CtRpl32). […] The fold difference was calculated as 2^ε.

[1] = tested on: non-metastatic prostate cancer; conditions: phase 3, monotherapy, non-metastatic disease; stopped early; cited from earlier work

## COc1nc(C)cnc1NS(=O)(=O)c1cccnc1-c1ccc(-c2nnco2)cc1 [zibotentan]
ETAR
  Il-6 expression (marker of ET-1 action, normalized to Rpl32): prevented the increase in Il-6 expression; also recorded: blocks ETAR signaling
[1]
  overall survival (primary outcome): lack of effect

Source: patent publication US20220218701A1, “COMPOSITIONS AND METHODS COMPRISING ENDOTHELIN A RECEPTOR ANTAGONISTS AND ANDROGEN THERAPIES” (priority 2019, published 2022)
